Measurements published in article PMC10652723 (ACS Omega, 2023).
“Also recorded” adds a separate entry of the source.

Tests used:
SARS-CoV-2 = format: cell-based; conditions: for anti-SARS-CoV-2 activity (library screening): tetrazolium dye method, result in words
[1] = target: SARS-CoV-2 RNA polymerase (RdRp) (Severe acute respiratory syndrome coronavirus 2, UniProt P0DTD1); assay: RdRp inhibition assay; format: biochemical; conditions: Figure 4; result in words
neural stem cells = conditions: result in words; cited from earlier work
VeroE6/TMPRSS2 cells = conditions: at a concentration of 100 μM; result in words
[2] = tested on: 3-chymotrypsin-like (3CL) protease of SARS-CoV-2; conditions: result in words; cited from earlier work

**Q.** With `CC1=C(C/C=C(\C)CC/C=C(\C)Cc2cccc(C)c2)C(=O)c2ccccc2C1=O` [Compound 1] as the molecule, how does the “Microscopic observation of cell survival” value (SARS-CoV-2) read?
**A.** survived as well as control A

**Q.** What about the “anti-SARS-CoV-2 activity (library screening)” value (SARS-CoV-2) of the same molecule?
**A.** anti-SARS-CoV-2 activity was observed

**Q.** And the “Inhibitory effect on SARS-CoV-2 RdRp activity” value (from here on “Inhibitory effect”) [1]?
**A.** inhibited RdRp in a concentration-dependent manner

**Q.** What about the neuronal differentiation activity (neural stem cells) of the same molecule?
**A.** higher neuronal differentiation activity than natural vitamin K homologues; also recorded: induce neural stem cells to differentiate into neurons

**Q.** With `CC1=C(C/C=C(\C)CC/C=C(\C)Cc2cccc3ccccc23)C(=O)c2ccccc2C1=O` [Compound 2] as the molecule, how does the “anti-SARS-CoV-2 activity (library screening)” value (SARS-CoV-2) read?
**A.** anti-SARS-CoV-2 activity was observed

**Q.** And the “Inhibitory effect” value [1]?
**A.** inhibited RdRp in a concentration-dependent manner

**Q.** And the neuronal differentiation activity (neural stem cells)?
**A.** induce neural stem cells to differentiate into neurons

**Q.** For `CC1=C(C/C=C(\C)CC/C=C(\C)Cn2cnc3c(Cl)ncnc32)C(=O)c2ccccc2C1=O` [Compound 16, 2-((2E,6E)-8-(6-Chloro-9H-purin-9-yl)-3,7-dimethylocta-2,6-dien-1-yl)-3-methylnaphthalene-1,4-dione], which “Inhibitory effect” value [1] is on record?
**A.** inhibited RdRp in a concentration-dependent manner

**Q.** What about the toxicity (VeroE6/TMPRSS2 cells) of the same molecule?
**A.** no toxicity

**Q.** Which “inhibition of 3CL protease of SARS-CoV-2” value [2] does the source give for `CC1=CC(=O)c2ccccc2C1=O` [vitamin K3, menadione] here?
**A.** inhibit
